Laboratory results taken from patent US20220235065A1 (Epizyme, Inc., priority 2016, published 2022).

Experiments:
[1] = biological target: T1, EHMT1 (Homo sapiens, UniProt Q9H9B1); test: EHMT1 PEP (EHMT1 peptide enzyme assay); assay type: biochemical; details: peptide substrate enzyme assay
T1 sequence (Q9H9B1 1-1298): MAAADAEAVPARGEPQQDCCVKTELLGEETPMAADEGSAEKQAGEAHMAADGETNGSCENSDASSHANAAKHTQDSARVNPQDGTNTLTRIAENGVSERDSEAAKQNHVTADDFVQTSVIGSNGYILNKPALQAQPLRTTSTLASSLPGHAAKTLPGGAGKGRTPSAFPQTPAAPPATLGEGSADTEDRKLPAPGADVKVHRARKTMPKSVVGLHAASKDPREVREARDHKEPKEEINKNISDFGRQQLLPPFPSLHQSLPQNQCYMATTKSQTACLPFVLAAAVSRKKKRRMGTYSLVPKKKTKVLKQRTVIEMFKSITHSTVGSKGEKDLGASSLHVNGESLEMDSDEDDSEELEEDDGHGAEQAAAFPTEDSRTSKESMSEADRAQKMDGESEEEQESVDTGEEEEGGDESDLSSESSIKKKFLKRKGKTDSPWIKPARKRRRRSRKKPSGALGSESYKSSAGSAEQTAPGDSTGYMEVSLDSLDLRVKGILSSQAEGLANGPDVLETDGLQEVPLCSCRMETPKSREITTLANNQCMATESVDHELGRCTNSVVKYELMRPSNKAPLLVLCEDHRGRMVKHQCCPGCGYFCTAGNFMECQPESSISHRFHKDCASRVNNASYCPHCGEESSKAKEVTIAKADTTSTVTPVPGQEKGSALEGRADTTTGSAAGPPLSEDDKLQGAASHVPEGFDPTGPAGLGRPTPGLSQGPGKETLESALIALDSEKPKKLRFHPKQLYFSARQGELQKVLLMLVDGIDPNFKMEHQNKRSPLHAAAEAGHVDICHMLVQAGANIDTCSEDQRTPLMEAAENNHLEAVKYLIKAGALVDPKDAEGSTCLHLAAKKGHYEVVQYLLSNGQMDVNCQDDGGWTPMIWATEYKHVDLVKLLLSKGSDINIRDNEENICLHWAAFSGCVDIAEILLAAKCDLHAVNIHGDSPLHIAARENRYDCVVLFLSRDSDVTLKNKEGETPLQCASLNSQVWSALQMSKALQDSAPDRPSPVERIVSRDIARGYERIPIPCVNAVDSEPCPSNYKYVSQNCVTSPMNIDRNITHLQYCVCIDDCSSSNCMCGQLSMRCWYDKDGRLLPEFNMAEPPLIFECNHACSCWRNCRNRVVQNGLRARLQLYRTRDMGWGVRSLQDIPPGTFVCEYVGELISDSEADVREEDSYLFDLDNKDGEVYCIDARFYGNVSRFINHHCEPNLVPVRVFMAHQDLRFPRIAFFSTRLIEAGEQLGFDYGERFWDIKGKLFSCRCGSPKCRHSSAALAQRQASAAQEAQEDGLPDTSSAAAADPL

[2] = system: H3K9me2 in MDA-MB-231 cells; test: MDA-MB-231 H3K9me2 in-cell western assay; assay type: cell-based; details: Homo sapiens, read-out: EHMT2 ICW (IC50 μM)
Procedure, shortened: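 MDA-MB-231 cells (3,000/well) exposed to compound for two consecutive 48 h periods at 37 °C, then fixed and stained for H3K9me2, with DRAQ5 as DNA stain and infrared read at 700/800 nm. Percent inhibition was set between DMSO and UNC0638 control wells. IC50 came from triplicate dose–response fits with a four-parameter model, top 100%, bottom 0%.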

IC50 [1] [µM] | IC50 [2] [µM] | SMILES
> 10 | > 10 | CNc1cc(C)nc(Nc2ccc(OC)c(-n3nnc(CN(C)C)c3C)c2)n1 [Compound 139]
0.1 to 1 | 1 to 10 | CCN(CC)Cc1cn(-c2cc(Nc3nc(C)cc(NC)n3)ccc2OC)nn1 [Compound 143]
1 to 10 | > 10 | CNc1cc(C)nc(Nc2ccc(OC)c(-n3cc4cc(C)ccc4n3)c2)n1 [Compound 144]
> 10 | > 10 | CNc1cc(C)nc(Nc2ccc(OC)c(-n3cc4cc(C5CC5)ccc4n3)c2)n1 [Compound 145]

More lines, now with the values behind:

SMILES | IC50 [1] [µM] | IC50 [2] [µM]
CNc1cc(C)nc(Nc2ccc(OC)c(-n3cc(CN4CCC4)nn3)c2)n1 [Compound 121] | 0.1 to 1 | 0.1 to 1
CNCc1cn(-c2cc3nc(NC)cc(C)c3cc2OC)nn1 [Compound 122] | 0.1 to 1 | 1 to 10
CNc1cc(C)c2cc(OC)c(-n3cc(C4CCCN4)nn3)cc2n1 (stereo not shown) [Compound 125] | < 0.1 | 0.1 to 1
CNC(=O)c1nn(-c2cc(Nc3nc(C)cc(NC)n3)ccc2OC)cc1C [Compound 134] | > 10 | > 10
CNc1cc(C)nc(Nc2ccc(OC)c(-n3cc(C4CCCN4C)nn3)c2)n1 (stereo not shown) [Compound 136] | 0.1 to 1 | 0.1 to 1
CNc1cc(C)nc(Nc2ccc(OC)c(-n3cc(C4CCCN4)nn3)c2)n1 (stereo not shown) [Compound 137, N2-(4-methoxy-3-(4-(pyrrolidin-2-yl)-1H-1,2,3-triazol-1-yl)phenyl)-N4,6-dimethylpyrimidine-2,4-diamine] | < 0.1 | 0.1 to 1
CNc1cc(C)nc(Nc2ccc(OC)c(-n3nnc(C)c3CN(C)C)c2)n1 [Compound 138] | > 10 | > 10
